Source: ChEMBL document CHEMBL6182857, “Targeting biofilm formation in Candida albicans with halogenated pyrrolopyrimidine derivatives” (Eur J Med Chem, 2025)
Activity calls are given as the source filed them. The calls are words filed in the database; no cut-off is given here.

Legend:
Candida albicans [1] = test: Antibiofilm activity against fluconazole-resistant Candida albicans DAY185 assessed as inhibition of biofilm formation at 0.5 ug/ml measured after 24 hrs by crystal violet staining based analysis relative to control; format: functional, organism-based; settings: dose 0.5 µg/ml
Candida albicans [2] = test: Antibiofilm activity against fluconazole-resistant Candida albicans DAY185 assessed as inhibition of biofilm formation at 1 ug/ml measured after 24 hrs by crystal violet staining based analysis relative to control; format: functional
Candida albicans [3] = test: Antibiofilm activity against fluconazole-resistant Candida albicans DAY185 assessed as inhibition of biofilm formation at 50 ug/ml measured after 24 hrs by crystal violet staining based analysis relative to control; format: functional
Candida albicans [4] = test: Antibiofilm activity against fluconazole-resistant Candida albicans DAY185 assessed as inhibition of biofilm formation at 20 ug/ml measured after 24 hrs by crystal violet staining based analysis relative to control; format: functional
Candida albicans [5] = test: Antibiofilm activity against fluconazole-resistant Candida albicans DAY185 assessed as inhibition of biofilm formation at 10 to 20 ug/ml measured after 24 hrs by 2D/3D imaging analysis relative to control; format: functional; settings: dose 10-20 µg/ml
Candida albicans [6] = test: Inhibition of yeast to hypha transition in fluconazole-resistant Candida albicans DAY185 assessed as decrease in cell aggregation at 10 to 20 ug/ml measured after 24 hrs by SEM analysis; format: functional, organism-based; settings: dose 10-20 µg/ml
Candida albicans [7] = test: Inhibition of yeast to hypha transition in fluconazole-resistant Candida albicans DAY185 assessed as decrease in germ tube formation at 10 to 20 ug/ml measured after 24 hrs by SEM analysis; format: functional, organism-based; settings: dose 10-20 µg/ml
Candida albicans [8] = test: Inhibition of yeast to hypha transition in fluconazole-resistant Candida albicans DAY185 assessed as decrease in filamentous growth at 10 to 20 ug/ml measured after 24 hrs by SEM analysis; format: functional, organism-based; settings: dose 10-20 µg/ml
Candida albicans [9] = test: Inhibition of yeast to hypha transition in fluconazole-resistant Candida albicans DAY185 assessed as decrease in hyphal growth at 5 to 20 ug/ml measured after 24 hrs by SEM analysis; format: functional, organism-based; settings: dose 5-20 µg/ml
Candida albicans [10] = test: Inhibition of yeast to hypha transition in fluconazole-resistant Candida albicans DAY185 assessed as decrease in hyphal adhesion at 5 to 20 ug/ml measured after 24 hrs by SEM analysis; format: functional, organism-based; settings: dose 5-20 µg/ml
Candida albicans [11] = test: Downregulation of ALS3 mRNA level in fluconazole-resistant Candida albicans DAY185 assessed as fold decrease at 50 ug/ml incubated for 6 hrs by qRT-PCR analysis relative to control; format: functional; settings: dose 50.0 µg/ml
Candida albicans [12] = test: Downregulation of HWP1 mRNA level in fluconazole-resistant Candida albicans DAY185 assessed as fold decrease at 50 ug/ml incubated for 6 hrs by qRT-PCR analysis relative to control; format: functional; settings: dose 50.0 µg/ml
Candida albicans [13] = test: Upregulation of YWP1 mRNA level in fluconazole-resistant Candida albicans DAY185 assessed as fold increase at 50 ug/ml incubated for 6 hrs by qRT-PCR analysis relative to control; format: functional; settings: dose 50.0 µg/ml
Candida albicans [14] = test: Downregulation of ECE1 mRNA level in fluconazole-resistant Candida albicans DAY185 assessed as fold decrease at 50 ug/ml incubated for 6 hrs by qRT-PCR analysis relative to control; format: functional; settings: dose 50.0 µg/ml
Candida albicans [15] = test: Downregulation of UME6 mRNA level in fluconazole-resistant Candida albicans DAY185 assessed as fold decrease at 50 ug/ml incubated for 6 hrs by qRT-PCR analysis relative to control; format: functional; settings: dose 50.0 µg/ml
Candida albicans [16] = test: Upregulation of CDR11 mRNA level in fluconazole-resistant Candida albicans DAY185 assessed as fold increase at 50 ug/ml incubated for 6 hrs by qRT-PCR analysis relative to control; format: functional; settings: dose 50.0 µg/ml
Brassica rapa = test: Toxicity in Brassica rapa assessed as seed germination rate at 10 to 100 ug/ml treated for 4 days relative to control; format: organism-based; settings: in vivo, 96 h, at 10 to 100 µg/mL, dose 10-100 µg/ml, time 4 day
[17] = Toxicity in Caenorhabditis elegans assessed as nematode survival at 100 ug/ml treated for 7 days; settings: 168 h, dose 100 µg/ml, time 7 day
Candida albicans [18] = test: Antibiofilm activity against fluconazole-resistant Candida albicans DAY185 assessed as inhibition of biofilm formation on bio-compatible PLGA surface coated with compound at 10 to 20 ug/ml incubated for 24 hrs by CLSM analysis; format: functional, organism-based; settings: dose 10-20 µg/ml
Candida albicans [19] = test: Antibiofilm activity against fluconazole-resistant Candida albicans DAY185 assessed as reduction in biofilm thickness on bio-compatible PLGA surface coated with compound at 10 to 20 ug/ml incubated for 24 hrs by CLSM analysis; format: functional, organism-based; settings: dose 10-20 µg/ml
Candida albicans [20] = test: Antibiofilm activity against fluconazole-resistant Candida albicans DAY185 assessed as reduction in overall biofilm mass on bio-compatible PLGA surface coated with compound at 10 to 20 ug/ml incubated for 24 hrs by CLSM analysis; format: functional, organism-based; settings: dose 10-20 µg/ml
Candida albicans [21] = test: Antibiofilm activity against fluconazole-resistant Candida albicans DAY185 assessed as reduction in biofilm mass on bio-compatible PLGA surface coated with compound incubated for 24 hrs by COMSTAT analysis; format: functional, organism-based
Candida albicans [22] = test: Antibiofilm activity against fluconazole-resistant Candida albicans DAY185 assessed as reduction in mean biofilm thickness on bio-compatible PLGA surface coated with compound incubated for 24 hrs by COMSTAT analysis; format: functional, organism-based
Candida albicans [23] = test: Antibiofilm activity against fluconazole-resistant Candida albicans DAY185 assessed as reduction in substratum coverage on bio-compatible PLGA surface coated with compound at 20 ug/ml incubated for 24 hrs by COMSTAT analysis; format: functional, organism-based; settings: dose 20.0 µg/ml
Candida albicans [24] = test: Additive antibiofilm activity against fluconazole-resistant Candida albicans DAY185 assessed as inhibition of biofilm formation at 10 ug/ml measured after 24 hrs in presence of AMB by crystal violet staining based analysis relative to control; format: functional, organism-based; settings: dose 10.0 µg/ml
Candida albicans [25] = test: Antibiofilm activity against Candida albicans ATCC 10231 assessed as inhibition of biofilm formation by crystal violet staining based analysis; format: functional, organism-based
Candida albicans [26] = test: Additive antibiofilm activity against fluconazole-resistant Candida albicans DAY185 assessed as inhibition of biofilm formation at 10 ug/ml measured after 24 hrs in presence of BTZ by crystal violet staining based analysis relative to control; format: functional, organism-based; settings: dose 10.0 µg/ml
Candida albicans [27] = test: Antibiofilm activity against Candida albicans KCCM 12552 assessed as inhibition of biofilm formation by crystal violet staining based analysis; format: functional, organism-based
[Candida] auris [28] = Antibiofilm activity against Candida auris KCTC 17809 assessed as inhibition of biofilm formation by crystal violet staining based analysis; format: functional, organism-based; settings: Candidozyma auris
[Candida] auris [29] = Antibiofilm activity against Candida auris KCTC 17810 assessed as inhibition of biofilm formation by crystal violet staining based analysis; format: functional, organism-based; settings: Candidozyma auris

Question: For C[C@@H]1[C@H](O)[C@@H](C)/C=C/C=C/C=C/C=C/C=C/C=C/C=C/[C@H](O[C@@H]2O[C@H](C)[C@@H](O)[C@H](N)[C@@H]2O)C[C@@H]2O[C@](O)(C[C@@H](O)C[C@@H](O)[C@H](O)CC[C@@H](O)C[C@@H](O)CC(=O)O[C@H]1C)C[C@H](O)[C@H]2C(=O)O [AMPHOTERICIN B], which inhibition (Candida albicans [1]) is on record?
Answer: Active

Question: And the inhibition at 1 µg/mL (Candida albicans [2])?
Answer: 96%

Question: With Clc1nc(Cl)c2c(Br)c[nH]c2n1 as the compound, how does the inhibition at 50 µg/mL (Candida albicans [3]) read?
Answer: > 95%

Question: And the inhibition at 20 µg/mL (Candida albicans [4])?
Answer: > 85%

Question: Which inhibition at 50 µg/mL (Candida albicans [3]) does the source give for Clc1ncnc2[nH]cc(I)c12 here?
Answer: > 95%

Question: And the inhibition at 20 µg/mL (Candida albicans [4])?
Answer: > 85%

Question: And the inhibition (Candida albicans [5])?
Answer: Active; Significant Effect Was Observed At 20 Ug/Ml

Question: And the inhibition (Candida albicans [6])?
Answer: Active

Question: What about the inhibition (Candida albicans [7]) of the same compound?
Answer: Active

Question: What about the inhibition (Candida albicans [8]) of the same compound?
Answer: Active

Question: What about the inhibition (Candida albicans [9]) of the same compound?
Answer: Active

Question: And the inhibition (Candida albicans [10])?
Answer: Active

Question: What about the fold change (FC) (Candida albicans [11]) of the same compound?
Answer: 145

Question: What about the fold change (FC) (Candida albicans [12]) of the same compound?
Answer: 55

Question: And the fold change (FC) (Candida albicans [13])?
Answer: 14

Question: What about the fold change (FC) (Candida albicans [14]) of the same compound?
Answer: 267

Question: What about the fold change (FC) (Candida albicans [15]) of the same compound?
Answer: 15

Question: And the fold change (FC) (Candida albicans [16])?
Answer: 13

Question: And the Activity (Brassica rapa)?
Answer: > 90%

Question: What about the Activity [17] of the same compound?
Answer: Toxic

Question: What about the inhibition (Candida albicans [18]) of the same compound?
Answer: Active

Question: And the Activity (Candida albicans [19])?
Answer: Active; More Pronounced Effects Were Observed At Higher Concentration

Question: What about the Activity (Candida albicans [20]) of the same compound?
Answer: Active; More Pronounced Effects Were Observed At Higher Concentration

Question: And the Activity (Candida albicans [21])?
Answer: Dose-dependent-effect; Nearly Undetectable Levels Were Observed At 20 Ug/Ml

Question: And the Activity (Candida albicans [22])?
Answer: Dose-dependent-effect; Nearly Undetectable Levels Were Observed At 20 Ug/Ml

Question: And the Activity (Candida albicans [23])?
Answer: Active

Question: What about the inhibition (Candida albicans [24]) of the same compound?
Answer: Active

Question: What about the inhibition (Candida albicans [25]) of the same compound?
Answer: Dose-dependent-effect

Question: And the inhibition (Candida albicans [26])?
Answer: Active

Question: And the inhibition (Candida albicans [27])?
Answer: Dose-dependent-effect

Question: What about the inhibition ([Candida] auris [28]) of the same compound?
Answer: Dose-dependent-effect

Question: What about the inhibition ([Candida] auris [29]) of the same compound?
Answer: Dose-dependent-effect
